Test results: ChEMBL document CHEMBL6127105, “Immunosuppressive Breviane Spiroditerpenoids from Penicillium bialowiezense Isolated from a Medicinal Plant” (J Nat Prod, 2024)

Test: Immunosuppressive activity against ConA induced T-cells proliferation
Type: functional, cell-based
Details: T-cell

First: CC1=CC[C@@H]2[C@@]3(C)CCC(=O)C(C)(C)[C@@H]3CC[C@@]2(C)[C@]12Cc1c(c(C)c(C)oc1=O)O2
Second: CC1=C[C@H](O)[C@@H]2[C@@]3(C)CCC(=O)C(C)(C)[C@@H]3CC[C@@]2(C)[C@]12Cc1c(c(C)c(C)oc1=O)O2
The IC50 of the first is 1.5-fold higher: 17 µM for the first, 11 µM for the second. The second is the more potent here.

Going from CC1=C[C@H](O)[C@@H]2[C@@]3(C)[C@H](O)CC(=O)C(C)(C)[C@@H]3CC[C@@]2(C)[C@]12Cc1c(c(C)c(C)oc1=O)O2 to CC1=C[C@H](O)[C@@H]2[C@@]3(C)CC[C@H](O)C(C)(C)[C@@H]3CC[C@@]2(C)[C@]12Cc1c(c(C)c(C)oc1=O)O2, the IC50 falls from 12 µM to 4.1 µM (2.9-fold). The second is the more potent here.

CC1=C[C@H](O)[C@@H]2[C@@]3(C)C=CC(=O)C(C)(C)[C@@H]3CC[C@@]2(C)[C@]12Cc1c(c(C)c(C)oc1=O)O2 and CC1=CC[C@@H]2[C@@]3(C)C=CC(=O)C(C)(C)[C@@H]3CC[C@@]2(C)[C@]12Cc1c(c(C)c(C)oc1=O)O2 are within 1.5-fold of each other in IC50: 4.7 µM for the first, 4.8 µM for the second.

CC1=C[C@H](O)[C@@H]2[C@@]3(C)[C@H](O)[C@@H](O)[C@H](O)C(C)(C)[C@@H]3CC[C@@]2(C)[C@]12Cc1c(c(C)c(C)oc1=O)O2 gave an IC50 of 7.3 µM.

Test: Immunosuppressive activity against LPS induced B-cells proliferation
Type: functional, cell-based
Details: B-cell

CC1=CC[C@@H]2[C@@]3(C)CCC(=O)C(C)(C)[C@@H]3CC[C@@]2(C)[C@]12Cc1c(c(C)c(C)oc1=O)O2 and CC1=C[C@H](O)[C@@H]2[C@@]3(C)CCC(=O)C(C)(C)[C@@H]3CC[C@@]2(C)[C@]12Cc1c(c(C)c(C)oc1=O)O2 are within 1.5-fold of each other in IC50: 17 µM for the first, 18 µM for the second.

Going from CC1=C[C@H](O)[C@@H]2[C@@]3(C)[C@H](O)CC(=O)C(C)(C)[C@@H]3CC[C@@]2(C)[C@]12Cc1c(c(C)c(C)oc1=O)O2 to CC1=C[C@H](O)[C@@H]2[C@@]3(C)CC[C@H](O)C(C)(C)[C@@H]3CC[C@@]2(C)[C@]12Cc1c(c(C)c(C)oc1=O)O2, the IC50 falls from 13 µM to 4.6 µM (2.8-fold). The second is the more potent here.

CC1=C[C@H](O)[C@@H]2[C@@]3(C)C=CC(=O)C(C)(C)[C@@H]3CC[C@@]2(C)[C@]12Cc1c(c(C)c(C)oc1=O)O2 and CC1=CC[C@@H]2[C@@]3(C)C=CC(=O)C(C)(C)[C@@H]3CC[C@@]2(C)[C@]12Cc1c(c(C)c(C)oc1=O)O2 are within 1.5-fold of each other in IC50: 7.5 µM for the first, 6.7 µM for the second.

CC1=C[C@H](O)[C@@H]2[C@@]3(C)[C@H](O)[C@@H](O)[C@H](O)C(C)(C)[C@@H]3CC[C@@]2(C)[C@]12Cc1c(c(C)c(C)oc1=O)O2 gave an IC50 of 6.3 µM.
